System: apple tree (variety: Fuji)
Assay: Defloration effect (percentage of remaining fruits) after spraying a flowering apple branch
Assay type: in vivo
Details: Low temperature condition (14.6° C.); ethephon alone 100 ppm, compound (I) 0 ppm; 30 days after spraying
Excerpt: The ME preparation and ethephon preparation produced as described above were mixed together to obtain an application solution.
A branch having about 50 bunches of flowers was selected from a 13-year old apple tree (variety: Fuji). The application solution produced as described above was sprayed over the whole branch with a knapsack sprayer on the day after the full blossom of the central flower. The evaluation results are shown by percentages of remaining fruits (both central and lateral fruits) calculated by the formula shown below. The phytotoxicity was determined on the basis of defoliation, discolored leaves, state of leaves and also state of russet, and the results were classified into the following 5 ranks (− to +++).
Percentage of remaining fruits ≈ number of normal fruits on the test day/number of flowers on the treatment day × 100

For `O=P(O)(O)CCCl` [Ethephon, 2-chloroethylphosphonic acid], the “Fruit setting rate (%) Central fruit” value was 83% and the “Fruit setting rate (%) Lateral fruit” value was 42%.
